Test results: patent publication US10888500B2, “Particle size stabilization process” (INKE, S.A., priority 2016, dated 2021)

How the values were obtained:
[1] = for D50 determined by LDS after curing / D90 determined by LDS after curing: after curing at 130° C., storage at 25° C. for (at least) 1 month
Method: Laser Diffraction Spectrometry (LDS) was used to determine the Particle Size Distribution (PSD) and the determination of the presence of aggregates.
Particle Size Distribution ([…]).
The particle size distribution of sample was measured by using a Helos particle size analyser using a R1 lense with an Aspiros feeder using a dispersing dry process on 50 mg of glycopyrronium salt product.
(§1) Determination of Presence of Aggregates (MALVERN).
The presence of aggregates in a sample was determined by using a Malvern Mastersizer 2000 instrument. For example: 100 mg of glycopyrronium salt were mixed with 5 ml of a previously prepared saturated solution of glycopyrronium salt in n-heptane containing 0.2 wt. % of Span-20. Ultrasonic treatment of the samples was performed for 2 minutes.

[2] = Amorphous content by Dynamic Vapor Sorption Analysis (DVS), water uptake method; format: physicochemical; conditions: after the curing step
Method: Dynamic Vapor Sorption Analysis (DVS):
The experiments were performed in a Mettler Toledo TGA/DSC 1 LF instrument equipped with a LF SDTA FRS2 sensor and coupled with a Modular Humidity Generator MHG 32. The samples were weighted into 150 μL platinum crucibles. Data collection and evaluation was done with STARe software. A water uptake method was used to determine the amorphous content. In this method, the relative mass difference at a specific relative humidity (20%) prior to and post humidity-induced crystallization was compared. Assuming no solvate or hydrate formation, the difference in uptake between partially amorphous and recrystallized material is directly proportional to the initial amount of amorphous material in the sample. A purely amorphous sample (reference sample) was used as amorphous standard. The water uptake of a sample is proportional to the amount of amorphous content present in the sample.

[3] = Determination of presence of aggregates / agglomerated material (Malvern); format: physicochemical; conditions: after the curing step
Text: as §1

[4] = between pH 1 and 14; cited from earlier work
[5] = after curing at 70° C., vacuum, 6 hours, FIG. 1: after storage at 25° C. for 1 month

| Molecule | D50 determined by LDS after curing [1] [μm] | D90 determined by LDS after curing [1] [μm] | amorphous content as determined by DVS (in words) [2] | agglomerated material observed [3] | D50 after the curing step (agglomerated material, FIG. 1) [1, 5] [μm] | D90 after the curing step (agglomerated material, FIG. 1) [1, 5] [μm] | amorphous content as determined by DVS [2] [wt. %] | ionization [4] |
| --- | --- | --- | --- | --- | --- | --- | --- | --- |
| glycopyrronium bromide [Example 6] | 1.48 | 3.11 | No amorphous content was detected | no agglomerated material was observed | – | – | – | – |
| glycopyrronium bromide [Example 1, reference compound] | – | – | – | significant amount of agglomerated material | 60.27 | 888.59 | 1.8 | – |
| glycopyrronium bromide [Example 5] | 1.43 | 3.28 | No amorphous content was detected | no agglomerated material was observed | – | – | – | – |
| glycopyrronium bromide [Example 4] | 1.45 | 3.26 | No amorphous content was detected | no agglomerated material was observed | – | – | – | – |
| glycopyrronium bromide [Example 2] | 1.45 | 3.39 | No amorphous content was detected | no agglomerated material was observed | – | – | – | – |
| C[N+]1(C)CC[C@@H](OC(=O)[C@@](O)(c2ccccc2)C2CCCC2)C1 (racemic) [Glycopyrronium bromide, (3RS)-3-[(2SR)-(2-cyclopentyl-2-hydroxy-2-phenylacetyl)oxy]-1,1-dimethylpyrrolidinium bromide] | – | – | – | – | – | – | – | completely ionized |
| glycopyrronium bromide [Example 3] | 1.46 | 3.36 | No amorphous content was detected | no agglomerated material was observed | – | – | – | – |
